Assay results as given in PMC9228567 (2022).

Tested on: cy5-TTRS (WT Tte-PreQ1 riboswitch aptamer) (RNA, riboswitch) CUCACCUGGGUCGCAGUAACCCCAGUUAACAAAACAAGGGAGGUAAUUUU
Experiment: microscale thermophoresis
Settings: 100 mM KCl, 1 mM MgCl2; 50 mM Tris pH 7.5, RT, DMSO; apparent, single-site fit

- KD: 11.7 ± 0.35 nM
Structure (SMILES): NCc1c[nH]c2nc(N)[nH]c(=O)c12
